Source: publication PMC11756387, “Improving the solubility of pseudo-hydrophobic chemicals through co-crystal formulation” (PNAS Nexus, 2025)
Values after ≈ are worked out from the molar mass of the structure shown.

What was measured:
AD tau = AD tau (Homo sapiens, UniProt P10636); assay type: cell-based
[1] = buffer
physchem [2] = settings: water, thermodynamic from solid
physchem [3] = settings: pH 7.4
in vitro [4] = settings: human, microsomes
in vitro [5] = settings: male, mouse, microsomes
[6] = Kinetic solubility in simulated intestinal fluid (SIF); settings: pH 6.8

Chain of AD tau (P10636 623-695 limits assumed): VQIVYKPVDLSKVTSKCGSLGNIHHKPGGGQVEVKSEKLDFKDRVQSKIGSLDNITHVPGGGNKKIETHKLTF

In the case of `[Ca+2].[OH-].[OH-]` [Ca(OH)2, calcium hydroxide], the “Inhibitory activity of counterions toward tau seeding” value (AD tau) is reported as “neither TEA nor Ca(OH)2 exhibited inhibitory activity”.
For `O=C1c2c(O)cc(O)cc2O[C@H](c2cc(O)c(O)c(O)c2)[C@H]1O` [DHM, dihydromyricetin], the “Fraction remaining dissolved in aqueous solution after centrifugation” value [1] was “about 20%”, the solubility thermodynamic (physchem [2]) was 650 µg/mL (≈ 2030 µM) and the logD at 1 h (physchem [3]) was 0.63. It also gave a half-life at 1 µM (in vitro [4]) of 3.38 h, a remaining at 1 h, 1 µM (in vitro [4]) of ~100% and a half-life at 1 µM (in vitro [5]) of 1.57 h.
In the case of `O=C(O)Cc1ccccc1Nc1c(Cl)cccc1Cl` [diclofenac], the solubility kinetic at 2 h [6] is reported as ~300 µM (≈ 88.8 µg/mL).
